Test results from patent US9073858B2, “Methods of targeted drug development” (priority 2010, dated 2015).
Read-outs that look alike come from different tables or passages of the source.

Columns and labels:
annexin V in A549 cells = settings: for % Total Apoptosis: cells in early- and late-stage apoptosis; for % Relative to Reference Cpd.: reference 4.0 μM camptothecin or 1.0 μM staurosporin
Description: Assays that measure apoptosis are utilized to determine whether or not compounds can induce programmed cell death in cancer cells. Annexin V is a protein that is used to detect apoptosis by binding to phosphatidylserine expressed on membranes of dead or dying cells. Fluorescently tagged with FITC, it can he used in conjunction with 7-aminoactinomycin D to determine the percentage of cells undergoing apoptosis via flow cytometry. Cells in early apoptosis will emit an FITC signal which will eventually be replaced by the far red 7-AAD signal that is associated with cell membrane permeability due to necrosis.
In brief, for the Annexin V Assay, compounds were added to cells plated in 6-well plates. Treated cells were incubated for up to 30 hours before addition of fluorescent cell marker probes that detect the presence of annexin V. The percentage of cells undergoing apoptosis and necrosis were determined by flow cytometry.
On day 2, working solutions of compounds (at 1000×) were prepared. To 2.0 ml media/well was added 2 μl 1000× compound diluted in 100% DMSO for final DMSO concentration of 0.1%. On day 3, plates were incubated for 30 hrs. […] Cells were collected by centrifugation at 300×g for 5 min.
Resuspended cells were stored at 4° C. in the dark, until flow cytometry analysis.
For flow cytometry analysis of the Annexin V Assay, sample acquisition was on the BD LSR II manufactured by BD Biosciences, San Jose, Calif. […] 10,000 events werer collected based on a stopping gate of forward scatter vs side scatter light. Acquisition was done through BD FACS DiVa software version 6.1.1 on high flow rate (60 μL/min). Calculations were as follows: Quadrant 3=lower left=live cells; Quadrant 4=lower right=early apoptosis; Quadrant 2=upper right=late apoptosis; Quadrant 1=upper left=dead cells. Percent (%)Total apoptosis was calculated as early (quadrant 4)+late (quadrant 2). Percent (%) ratio apoptosis was calculated as (experimental-No treatment/positive control)*100. All statistical analyses are done using GraphPad Prism or Microsoft Excel.

[1] = Pharmacokinetics, intravenous and oral dose; set-up: species or system male CD-1 mice; settings: in vivo; for Cmax: plasma; for half-life: read-out: Half-life (t1/2; h) (converted)
Method: Plasma levels of the test compounds were determined by LC-MS/MS. Data was analyzed by non compartmental pharmacokinetic model by using WinNonlin.

[2] = Stability on incubation with human liver microsomes (HLM); assay type: in vitro ADME; settings: percentage left after incubation with human liver microsomes for 30 minutes
Outline: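 Values are percent compound remaining after 30 min incubation with mouse or human liver microsomes.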

MDBK line = assay: MTT Cell Proliferation Assay, MDBK line; assay type: cell-based, bovine; settings: Bos taurus, MDBK
Outline: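 Cells plated overnight, then exposed 3 days at 37 °C, 5% CO2 to compound in growth medium with 0.5% FBS and 0.5% DMSO final (0.5% DMSO as control).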

[3] = mouse, iv, 1 mg/kg, male CD-1 mice
[4] = mouse, po, 5 mg/kg, male CD-1 mice
[5] = mouse, po, 5 mg/kg, male CD-1 mice, read-out: Tmax

| SMILES | % Total Apoptosis (annexin V in A549 cells; 1 μM, A549 cells) [%] | % Total Apoptosis (annexin V in A549 cells; 10 μM, A549 cells) [%] | AUC ([1]; male, CD-1, mouse, iv, 1 mg/kg) [ng·h/mL] | Tmax ([1]; male, CD-1, mouse, iv, 1 mg/kg) [min] | AUC ([1]; male, CD-1, mouse, po, 5 mg/kg) [ng·h/mL] | Vd [1, 3] [L/kg] | clearance [1, 3] [mL/min/kg] | Cmax [1, 3] [ng/mL] | half-life [1, 3] [min] | Cmax [1, 4] [ng/mL] | Tmax [1, 5] [min] | HLM % Remaining@ 30 Min [2] [%] | IC50 (MDBK line; 10 point follow-up, second value of pair, read-out: MTT (10 Point follow-up) MDBK) [nM] | IC50 (MDBK line; 72 h, second value of A431/MDBK pair, read-out: MTT-72 h MDBK) [nM] | apoptosis, share of the cell population (annexin V in A549 cells; 1 μM, A549 cells, FIG. 16B) | % Relative to Reference Cpd. (annexin V in A549 cells; 1 μM) [%] | late apoptosis, share of the cell population (annexin V in A549 cells; 10 μM, A549 cells, FIG. 16B) | % Relative to Reference Cpd. (annexin V in A549 cells; 10 μM) [%] |
| --- | --- | --- | --- | --- | --- | --- | --- | --- | --- | --- | --- | --- | --- | --- | --- | --- | --- | --- |
| Cc1c(Cl)cnc(NC(c2cccc(Cl)c2Cl)c2ccc3cccnc3c2O)c1F (stereo not drawn) [AD4-13192] | 29 | 30 | 1390 | 4.98 | 115 | 0.56 | 12 | 3550 ± 571 | 88.2 | 59 ± 21 | 30 | 100 |  |  |  |  |  |  |
| Oc1c(C(Nc2ccccn2)c2ccc(C(F)(F)F)cc2)ccc2cccnc12 (stereo not drawn) [compound 10460] |  |  |  |  |  |  |  |  |  |  |  |  | 375 | 530 |  |  |  |  |
| Cc1cc(Cl)cnc1NC(c1ccc(Cl)cc1Cl)c1ccc2cccnc2c1O (stereo not drawn) [AD4-13130] | 32 | 38 | 609 | 4.98 | 278 | 3.24 | 27.3 | 669 ± 45 | 112 | 131 ± 51 | 60 | 89 |  |  | greater than 50% | 178 | up to 20% | 166 |
